Reference: patent US12570536B2, “Ammonia synthesis methods and systems” (President and Fellows of Harvard College, priority 2016, dated 2026)

How the values were obtained:
[1] = molecular target: nitrogenase; settings: competitive inhibition of nitrogenase; cited from earlier work
[2] = tested on: X. autotrophicus; experiment: Extracellular NH3 production by the CoPi|Co-P|X. autotrophicus hybrid device after addition of a GS inhibitor; format: cell-based, Xanthobacter autotrophicus
Text: A reactor used in the experiments included a biocompatible water splitting catalyst system including a cobalt-phosphorous (Co—P) alloy cathode for the hydrogen evolution reaction (HER) and a cobalt phosphate (CoPi) anode for the oxygen evolution reaction (OER). This system enabled the use of a low driving voltage (Eappl) while producing the desired hydrogen for use in producing ammonia. Specifically, NH3 synthesis from N2 and H2O was accomplished using the water splitting system and driving the N2 reduction reaction within H2-oxidizing, autotrophic microorganisms. In this case, Xanthobacter autotrophicus (X. autotrophicus) was used. X. autotrophicus is a gram-negative bacterium that belongs to a small group of diazotrophs, which at micro-aerobic condition (less than about 5% O2) can use H2 as their sole energy source to fix CO2 and N2 into biomass. Therefore, in this experimental setup, electrochemical water splitting generated H2 as the biological energy source and in the same reactor X. autotrophicus acted as the room-temperature N2 reduction reaction catalyst to convert H2 and N2 into NH3.
The electrodes included a Co—P cathode for the hydrogen evolution reaction and a CoPi anode for the oxygen evolution reaction. A gas mixture including 2% O2, 20% CO2, and 78% N2 was bubbled through the solution at a flow rate of greater than or equal to 5 mL/min to maintain a micro-aerobic environment.
At the beginning of each experiment, X. autotrophicus was inoculated into the organic-free minimal medium without any nitrogen supplement. A constant driving voltage (Eappl=3.0 V) was applied to the CoPi|Co—P catalyst system, and aliquots were periodically sampled for the quantification of biomass (optical density at 600 nm, OD600) as well as fixed nitrogen (colorimetric assay).
The hybrid device is capable of excreting synthesized NH3 into an extracellular medium. Previous biochemical assays and genome sequencing on this strain indicate that the NH3 generated from nitrogenase is incorporated into biomass via a two-step process mediated by glutamine synthetase (GS) and glutamate synthase (GOGAT) (FIGS. 1 and 5). If the functionality of this NH3 assimilation pathway is disrupted, direct production of an extracellular NH3 fertilizer solution is realized. It has been reported that GS inhibitors can be used for NH3 secretion in sugar-fementating diazotrophs. As a proof of principle, glufosinate (PPT), a specific GS inhibitor commercially used as herbicide, was used to block the NH3 assimilation pathway and allow the synthesized NH3 to passively diffuse out into the extracellular medium (pathway 2 in FIG. 1, and FIG. 5). After the addition of PPT, the biomass of X. autotrophicus stagnated, while Ntotal and the concentration of free NH3 in the solution (NNH3) increased (FIG. 6). […]

[3] = end of experiments, after PPT addition, n=3

SMILES | inhibition constant Kis(D2) [1] [kPa] | biomass of X. autotrophicus after addition ([2]; after the addition of PPT, FIG. 6) | concentration of free NH3 in the solution (NNH3) ([2]; end of experiments, after PPT addition) [mM] | accumulated Ntotal [2, 3] [mg/L] | concentration of free NH3 in the solution (NNH3) [2, 3] [mg/L]
[HH] [H2] | ~11 |  |  |  | 
CP(=O)(O)CCC(N)C(=O)O (centres unmarked) [PPT, glufosinate] |  | stagnated | ~0.8 | 47 ± 3 | 11 ± 2
